Measurements published in patent publication US7074789B2, “Kinase inhibitors” (Amgen Inc., priority 1999, dated 2006).

Assays:
Format in all cases: biochemical
Kdr = target: T1, Kdr (Homo sapiens, UniProt P35968); experiment: Kinase inhibition assay (33P transfer), Kdr; conditions: for IC50: read-out: KDR-1
T1 construct: Kinases are expressed as either kinase domains or full length constructs; made in house
Summary of the method: (§1)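 Radiometric readout: 33P incorporated into surface-bound poly(Glu,Tyr) 4:1 or poly(Arg,Ser) 3:1 is counted by liquid scintillation after a 0.5% phosphoric acid wash. Enzymes were GST or polyHis fusions (kinase domain or full length) from E. coli or High Five insect cells.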

AKT = target: T2, AKT (Homo sapiens, UniProt Q9Y243); experiment: Kinase inhibition assay (33P transfer), AKT; conditions: Table 2, kinase inhibition class; for IC50: read-out: AKT3-1
T2 construct: Kinases are expressed as either kinase domains or full length constructs; made in house
T2 sequence (Q9Y243 whole entry, the tested form may be a part): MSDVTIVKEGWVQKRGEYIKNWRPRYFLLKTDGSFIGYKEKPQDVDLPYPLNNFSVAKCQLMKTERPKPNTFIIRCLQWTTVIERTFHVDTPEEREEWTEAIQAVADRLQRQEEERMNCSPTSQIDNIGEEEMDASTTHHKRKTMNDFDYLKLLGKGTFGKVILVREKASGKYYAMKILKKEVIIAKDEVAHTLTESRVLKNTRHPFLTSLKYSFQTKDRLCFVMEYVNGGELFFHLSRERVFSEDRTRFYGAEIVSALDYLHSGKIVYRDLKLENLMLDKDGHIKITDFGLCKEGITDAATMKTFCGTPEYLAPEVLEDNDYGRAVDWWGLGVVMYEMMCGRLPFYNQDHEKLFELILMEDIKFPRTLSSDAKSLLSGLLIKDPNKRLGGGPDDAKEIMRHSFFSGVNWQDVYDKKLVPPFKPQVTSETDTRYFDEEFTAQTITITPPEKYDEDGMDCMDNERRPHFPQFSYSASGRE
Summary of the method: as §1

PDGFRB = target: T3, PDGFRB (Homo sapiens, UniProt P09619); experiment: Kinase inhibition assay (33P transfer), PDGFRB; conditions: for IC50: read-out: PDGFRB-1
T3 construct: Kinases are expressed as either kinase domains or full length constructs; made in house

EGFR = target: T4, EGFR (Homo sapiens, UniProt P00533); experiment: Kinase inhibition assay (33P transfer), EGFR; conditions: Table 2, kinase inhibition class; for IC50: read-out: EGFR-1
T4 construct: Kinases are expressed as either kinase domains or full length constructs; made in house
T4 sequence (P00533 25-1210, species assumed): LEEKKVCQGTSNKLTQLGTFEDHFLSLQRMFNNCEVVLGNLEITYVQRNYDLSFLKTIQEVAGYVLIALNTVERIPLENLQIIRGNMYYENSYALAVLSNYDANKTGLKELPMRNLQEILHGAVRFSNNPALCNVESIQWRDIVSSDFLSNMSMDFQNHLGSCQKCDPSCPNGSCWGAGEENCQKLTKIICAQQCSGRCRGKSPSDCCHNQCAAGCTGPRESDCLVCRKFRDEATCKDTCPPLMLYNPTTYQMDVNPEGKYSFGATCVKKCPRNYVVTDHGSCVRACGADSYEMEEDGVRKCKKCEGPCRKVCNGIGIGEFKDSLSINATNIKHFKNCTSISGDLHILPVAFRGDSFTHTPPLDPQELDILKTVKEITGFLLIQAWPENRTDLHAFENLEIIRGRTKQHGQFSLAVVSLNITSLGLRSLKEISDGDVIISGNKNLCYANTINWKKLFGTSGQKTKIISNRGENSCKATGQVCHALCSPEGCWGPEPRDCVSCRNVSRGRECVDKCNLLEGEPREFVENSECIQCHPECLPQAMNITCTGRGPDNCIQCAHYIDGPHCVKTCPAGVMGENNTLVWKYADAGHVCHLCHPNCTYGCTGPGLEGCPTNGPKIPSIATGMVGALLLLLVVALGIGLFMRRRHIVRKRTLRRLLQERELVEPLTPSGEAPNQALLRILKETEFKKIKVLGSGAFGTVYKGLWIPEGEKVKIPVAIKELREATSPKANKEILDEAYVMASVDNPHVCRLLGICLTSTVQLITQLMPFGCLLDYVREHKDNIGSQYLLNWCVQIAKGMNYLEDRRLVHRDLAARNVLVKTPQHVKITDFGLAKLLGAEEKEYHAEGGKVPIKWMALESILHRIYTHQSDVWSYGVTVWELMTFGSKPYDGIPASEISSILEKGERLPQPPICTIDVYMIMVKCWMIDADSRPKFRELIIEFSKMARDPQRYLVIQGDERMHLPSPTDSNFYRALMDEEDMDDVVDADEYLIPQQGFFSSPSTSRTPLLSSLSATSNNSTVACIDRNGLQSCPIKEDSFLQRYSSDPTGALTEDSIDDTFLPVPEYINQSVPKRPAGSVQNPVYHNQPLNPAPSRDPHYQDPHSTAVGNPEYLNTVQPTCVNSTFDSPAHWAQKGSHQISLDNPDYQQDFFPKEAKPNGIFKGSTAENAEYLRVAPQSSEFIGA
Summary of the method: (§2)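 Activity read as 33P incorporation from ATP into poly(Glu,Tyr) 4:1 or poly(Arg,Ser) 3:1 substrate bound to microtiter plates, measured by scintillation after acid washing. Enzymes were affinity-purified GST or polyHis fusions (kinase domain or full length) from E. coli or baculovirus; IC50 = 50% reduction in labelled phosphate.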

c-Met = target: T5, c-Met (Homo sapiens, UniProt P08581); experiment: Kinase inhibition assay (33P transfer), c-Met; conditions: Table 2, kinase inhibition class; for IC50: read-out: Met-1
T5 construct: Kinases are expressed as either kinase domains or full length constructs; made in house
Summary of the method: as §2

ErbB2 = target: T6, ErbB2 (Homo sapiens, UniProt P04626); experiment: Kinase inhibition assay (33P transfer), ErbB2; conditions: for IC50: read-out: ErbB2-2
T6 construct: Kinases are expressed as either kinase domains or full length constructs; made in house
T6 sequence (P04626 23-1255, species assumed): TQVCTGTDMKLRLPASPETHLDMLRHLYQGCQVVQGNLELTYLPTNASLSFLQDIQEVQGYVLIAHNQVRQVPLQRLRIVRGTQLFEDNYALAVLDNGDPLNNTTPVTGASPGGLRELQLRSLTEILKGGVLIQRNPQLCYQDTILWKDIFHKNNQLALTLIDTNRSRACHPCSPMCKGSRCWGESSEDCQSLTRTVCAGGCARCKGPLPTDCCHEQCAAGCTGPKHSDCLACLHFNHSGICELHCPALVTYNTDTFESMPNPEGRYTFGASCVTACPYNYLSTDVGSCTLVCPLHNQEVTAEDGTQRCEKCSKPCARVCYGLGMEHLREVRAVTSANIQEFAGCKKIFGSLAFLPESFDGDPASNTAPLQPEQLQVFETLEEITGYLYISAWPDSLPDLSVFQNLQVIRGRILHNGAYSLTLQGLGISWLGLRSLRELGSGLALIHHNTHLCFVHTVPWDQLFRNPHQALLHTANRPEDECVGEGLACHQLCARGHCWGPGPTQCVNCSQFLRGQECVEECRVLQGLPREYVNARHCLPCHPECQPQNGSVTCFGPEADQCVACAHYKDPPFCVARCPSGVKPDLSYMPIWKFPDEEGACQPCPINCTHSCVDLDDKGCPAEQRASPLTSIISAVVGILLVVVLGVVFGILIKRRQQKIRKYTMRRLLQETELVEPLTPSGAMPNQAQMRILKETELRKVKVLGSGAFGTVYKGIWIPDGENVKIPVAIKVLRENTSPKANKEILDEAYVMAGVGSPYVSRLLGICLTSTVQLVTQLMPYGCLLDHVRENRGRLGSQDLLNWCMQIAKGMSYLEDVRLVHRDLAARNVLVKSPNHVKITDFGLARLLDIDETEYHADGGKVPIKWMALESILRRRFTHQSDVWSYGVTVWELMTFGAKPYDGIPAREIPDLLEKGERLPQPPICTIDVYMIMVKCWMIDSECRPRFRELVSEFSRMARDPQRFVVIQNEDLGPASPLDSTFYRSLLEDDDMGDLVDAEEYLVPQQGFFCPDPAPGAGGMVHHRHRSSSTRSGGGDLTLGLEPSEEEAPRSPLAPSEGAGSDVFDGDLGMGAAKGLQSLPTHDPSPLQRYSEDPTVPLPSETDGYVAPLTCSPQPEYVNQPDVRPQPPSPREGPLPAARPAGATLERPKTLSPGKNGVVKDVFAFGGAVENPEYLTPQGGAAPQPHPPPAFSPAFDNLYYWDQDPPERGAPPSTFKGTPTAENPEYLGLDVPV
Summary of the method: as §2

Tek = target: T7, Tek (Homo sapiens, UniProt Q02763); experiment: Kinase inhibition assay (33P transfer), Tek; conditions: for IC50: read-out: Tek-1
T7 construct: Kinases are expressed as either kinase domains or full length constructs; made in house
Summary of the method: as §2

Itk = target: T8, Itk (Homo sapiens, UniProt Q08881); experiment: Kinase inhibition assay (33P transfer), Itk; conditions: for IC50: read-out: Itk-1
T8 construct: Kinases are expressed as either kinase domains or full length constructs; made in house
T8 sequence (Q08881 1-620): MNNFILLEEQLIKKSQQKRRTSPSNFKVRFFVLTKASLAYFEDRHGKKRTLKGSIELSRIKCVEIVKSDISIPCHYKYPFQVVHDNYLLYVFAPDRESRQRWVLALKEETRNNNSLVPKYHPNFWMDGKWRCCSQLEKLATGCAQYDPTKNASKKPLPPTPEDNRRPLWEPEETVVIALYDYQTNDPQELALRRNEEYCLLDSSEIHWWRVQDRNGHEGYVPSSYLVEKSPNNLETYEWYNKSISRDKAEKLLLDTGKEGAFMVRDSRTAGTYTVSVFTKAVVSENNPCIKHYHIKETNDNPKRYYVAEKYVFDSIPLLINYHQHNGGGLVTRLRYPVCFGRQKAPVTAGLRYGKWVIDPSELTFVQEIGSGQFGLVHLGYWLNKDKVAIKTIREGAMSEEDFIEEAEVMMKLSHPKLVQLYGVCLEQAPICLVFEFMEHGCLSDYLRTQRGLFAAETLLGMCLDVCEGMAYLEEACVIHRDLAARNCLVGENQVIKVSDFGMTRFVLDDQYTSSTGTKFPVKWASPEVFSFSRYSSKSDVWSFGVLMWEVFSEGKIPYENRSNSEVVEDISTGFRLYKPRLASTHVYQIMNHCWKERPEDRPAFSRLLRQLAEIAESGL
Summary of the method: as §2

Zap-70 = target: T9, Zap-70 (Homo sapiens, UniProt P43403); experiment: Kinase inhibition assay (33P transfer), Zap-70; conditions: for IC50: read-out: Zap-1
T9 construct: Kinases are expressed as either kinase domains or full length constructs; made in house
T9 sequence (P43403 1-619): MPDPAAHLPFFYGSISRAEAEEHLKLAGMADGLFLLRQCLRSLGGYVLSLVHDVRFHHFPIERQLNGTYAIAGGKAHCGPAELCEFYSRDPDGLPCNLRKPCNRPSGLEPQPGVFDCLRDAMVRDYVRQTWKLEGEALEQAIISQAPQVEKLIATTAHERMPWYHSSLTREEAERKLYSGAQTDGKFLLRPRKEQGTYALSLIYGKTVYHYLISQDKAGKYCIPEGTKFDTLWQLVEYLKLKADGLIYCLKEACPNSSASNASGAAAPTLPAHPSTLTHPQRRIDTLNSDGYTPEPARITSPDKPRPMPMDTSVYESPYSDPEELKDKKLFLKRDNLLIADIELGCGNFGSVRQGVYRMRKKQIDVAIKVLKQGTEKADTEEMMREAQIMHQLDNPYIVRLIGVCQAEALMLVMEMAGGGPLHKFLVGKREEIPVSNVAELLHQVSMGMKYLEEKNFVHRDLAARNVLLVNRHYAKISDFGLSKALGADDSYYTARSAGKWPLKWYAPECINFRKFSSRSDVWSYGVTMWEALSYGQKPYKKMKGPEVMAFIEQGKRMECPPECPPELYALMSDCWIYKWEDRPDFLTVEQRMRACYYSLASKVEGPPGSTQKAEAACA
Summary of the method: as §1

Lck = target: T10, Lck (Homo sapiens, UniProt P06239); experiment: Kinase inhibition assay (33P transfer), Lck; conditions: for IC50: read-out: Lck-1
T10 construct: Kinases are expressed as either kinase domains or full length constructs; made in house
T10 sequence (P06239 whole entry, species assumed, the tested form may be a part): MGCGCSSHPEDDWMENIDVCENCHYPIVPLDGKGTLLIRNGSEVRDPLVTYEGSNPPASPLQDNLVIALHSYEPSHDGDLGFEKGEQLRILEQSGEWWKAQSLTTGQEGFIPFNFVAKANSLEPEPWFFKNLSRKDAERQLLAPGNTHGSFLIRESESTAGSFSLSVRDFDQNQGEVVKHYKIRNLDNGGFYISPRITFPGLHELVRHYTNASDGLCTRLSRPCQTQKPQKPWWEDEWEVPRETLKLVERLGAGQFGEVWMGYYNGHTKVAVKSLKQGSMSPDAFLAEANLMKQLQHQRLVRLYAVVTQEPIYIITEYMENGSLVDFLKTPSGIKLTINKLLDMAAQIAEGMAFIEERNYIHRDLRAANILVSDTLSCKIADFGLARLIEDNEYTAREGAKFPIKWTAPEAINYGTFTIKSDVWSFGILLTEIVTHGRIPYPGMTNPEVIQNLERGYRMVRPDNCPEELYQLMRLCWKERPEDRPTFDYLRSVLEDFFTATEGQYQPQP
Summary of the method: as §1

IGFR-1 = target: T11, IGFR-1 (Homo sapiens, UniProt P08069); experiment: Kinase inhibition assay, IGFR-1 (Table 2); conditions: Table 2, kinase inhibition class
T11 construct: Kinases are expressed as either kinase domains or full length constructs; made in house
T11 sequence (P08069 31-1367): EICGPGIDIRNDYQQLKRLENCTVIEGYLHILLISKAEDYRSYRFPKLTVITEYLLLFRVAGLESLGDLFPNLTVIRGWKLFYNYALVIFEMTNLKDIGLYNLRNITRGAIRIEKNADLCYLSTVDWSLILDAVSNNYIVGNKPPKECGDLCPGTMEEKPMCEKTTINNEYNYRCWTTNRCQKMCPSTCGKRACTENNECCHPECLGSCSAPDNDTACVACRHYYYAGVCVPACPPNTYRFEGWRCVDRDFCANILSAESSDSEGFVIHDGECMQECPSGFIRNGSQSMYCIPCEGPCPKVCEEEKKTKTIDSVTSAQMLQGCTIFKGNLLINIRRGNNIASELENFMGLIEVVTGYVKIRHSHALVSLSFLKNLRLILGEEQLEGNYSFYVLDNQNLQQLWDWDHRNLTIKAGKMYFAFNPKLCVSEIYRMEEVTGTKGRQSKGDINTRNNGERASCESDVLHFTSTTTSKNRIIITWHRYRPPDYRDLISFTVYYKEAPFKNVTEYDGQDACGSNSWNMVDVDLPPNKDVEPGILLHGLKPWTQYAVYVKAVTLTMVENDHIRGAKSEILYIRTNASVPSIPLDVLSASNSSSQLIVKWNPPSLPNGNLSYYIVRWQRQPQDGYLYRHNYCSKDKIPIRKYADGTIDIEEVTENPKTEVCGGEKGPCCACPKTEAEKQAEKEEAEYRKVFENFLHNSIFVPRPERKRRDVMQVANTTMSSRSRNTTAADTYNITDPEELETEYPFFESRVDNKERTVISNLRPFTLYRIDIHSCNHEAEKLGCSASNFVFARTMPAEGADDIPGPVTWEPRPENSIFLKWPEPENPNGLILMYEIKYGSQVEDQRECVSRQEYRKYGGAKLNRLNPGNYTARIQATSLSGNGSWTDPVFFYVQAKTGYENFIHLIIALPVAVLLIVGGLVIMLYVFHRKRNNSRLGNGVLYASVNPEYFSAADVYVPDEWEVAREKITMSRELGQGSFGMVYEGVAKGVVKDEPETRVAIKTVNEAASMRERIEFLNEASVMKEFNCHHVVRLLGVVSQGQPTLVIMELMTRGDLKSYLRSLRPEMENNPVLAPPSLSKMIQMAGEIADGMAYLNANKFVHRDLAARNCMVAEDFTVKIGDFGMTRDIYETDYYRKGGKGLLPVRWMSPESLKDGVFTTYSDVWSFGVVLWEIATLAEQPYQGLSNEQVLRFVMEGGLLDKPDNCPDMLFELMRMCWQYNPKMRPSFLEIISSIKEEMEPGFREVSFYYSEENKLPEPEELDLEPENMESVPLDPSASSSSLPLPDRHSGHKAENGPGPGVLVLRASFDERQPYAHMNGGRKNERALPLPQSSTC

COc1cc(Nc2ncnc(Nc3ccc(O)c4ncccc34)n2)cc(OC)c1OC [Compound 699]
KDR-1 (Kdr): B (B>0.4 and <2.4 ug/mL)
AKT3-1 (AKT): E (E>4.5 ug/mL)
PDGFRB-1 (PDGFRB): A (A<0.4 ug/mL)
EGFR-1 (EGFR): B (B>0.4 and <2.4 ug/mL)
Met-1 (c-Met): E (E>4.5 ug/mL)
ErbB2-2 (ErbB2): A (A<0.4 ug/mL)
Tek-1 (Tek): D (D>3.5 and <4.5 ug/mL)
Itk-1 (Itk): B (B>0.4 and <2.4 ug/mL)
Zap-1 (Zap-70): E (E>4.5 ug/mL)
Lck-1 (Lck): A (A<0.4 ug/mL)
IGFR-1 (IGFR-1): B (B>0.4 and <2.4 ug/mL)

NC(=O)c1ccc(Nc2ncnc(-c3cccnc3NCc3cccs3)n2)cc1 [Compound 1083]
IC50 (Kdr): < 991 nM
IC50 (AKT): > 11.2 µM
IC50 (PDGFRB): 0.991 to 5.95 µM
IC50 (EGFR): 0.991 to 5.95 µM
IC50 (c-Met): > 11.2 µM
IC50 (ErbB2): > 11.2 µM
IC50 (Tek): 0.991 to 5.95 µM
IC50 (Itk): 8.67 to 11.2 µM
IC50 (Zap-70): > 11.2 µM
IC50 (Lck): 0.991 to 5.95 µM
IC50 (IGFR-1): > 11200 nM

Nc1nc2ccccc2n1-c1ncnc(Nc2ccccc2)n1 [Compound 651]
IC50 (Kdr): < 1320 nM
IC50 (AKT): > 14.8 µM
IC50 (PDGFRB): 1.32 to 7.91 µM
IC50 (EGFR): > 14.8 µM
IC50 (c-Met): 1.32 to 7.91 µM
IC50 (Tek): 7.91 to 11.5 µM
IC50 (Itk): 1.32 to 7.91 µM
IC50 (Zap-70): > 14.8 µM
IC50 (Lck): 1.32 to 7.91 µM
IC50 (IGFR-1): < 1320 nM

Nc1nc2ccccc2n1-c1ncnc(Nc2cccc(Cl)c2)n1 [Compound 474]
IC50 (Kdr): 1180 to 7110 nM
IC50 (AKT): 1.18 to 7.11 µM
IC50 (PDGFRB): 1.18 to 7.11 µM
IC50 (EGFR): 1.18 to 7.11 µM
IC50 (c-Met): 1.18 to 7.11 µM
IC50 (ErbB2): 1.18 to 7.11 µM
IC50 (Tek): 1.18 to 7.11 µM
IC50 (Itk): 1.18 to 7.11 µM
IC50 (Zap-70): 7.11 to 10.4 µM
IC50 (Lck): 1.18 to 7.11 µM
IC50 (IGFR-1): 1180 to 7110 nM

COc1cc(Nc2ncnc(-n3nc(-c4ccccc4)cc3N)n2)cc(OC)c1OC [Compound 520]
IC50 (Kdr): > 10700 nM
IC50 (AKT): > 10.7 µM
IC50 (PDGFRB): > 10.7 µM
IC50 (EGFR): > 10.7 µM
IC50 (c-Met): > 10.7 µM
IC50 (ErbB2): > 10.7 µM
IC50 (Tek): > 10.7 µM
IC50 (Itk): 0.954 to 5.72 µM
IC50 (Zap-70): > 10.7 µM
IC50 (Lck): 0.954 to 5.72 µM
IC50 (IGFR-1): 954 to 5720 nM

CCc1ccc(Nc2ncnc(-n3c(N)nc4ccccc43)n2)cc1 [Compound 657]
IC50 (Kdr): 1210 to 7240 nM
IC50 (AKT): 7.24 to 10.6 µM
IC50 (PDGFRB): 7.24 to 10.6 µM
IC50 (EGFR): 1.21 to 7.24 µM
IC50 (c-Met): 7.24 to 10.6 µM
IC50 (ErbB2): 1.21 to 7.24 µM
IC50 (Tek): 1.21 to 7.24 µM
IC50 (Itk): 7.24 to 10.6 µM
IC50 (Zap-70): 1.21 to 7.24 µM
IC50 (Lck): 7.24 to 10.6 µM
IC50 (IGFR-1): 1210 to 7240 nM

Nc1nc2ccccc2n1-c1ncnc(Nc2cccnc2)n1 [Compound 658]
IC50 (Kdr): 1310 to 7890 nM
IC50 (AKT): > 14.8 µM
IC50 (PDGFRB): > 14.8 µM
IC50 (EGFR): 7.89 to 11.5 µM
IC50 (c-Met): > 14.8 µM
IC50 (ErbB2): > 14.8 µM
IC50 (Tek): > 14.8 µM
IC50 (Itk): 1.31 to 7.89 µM
IC50 (Zap-70): > 14.8 µM
IC50 (Lck): > 14.8 µM
IC50 (IGFR-1): < 1310 nM

COc1cc(Nc2ncnc(-n3c(N)nc4ccccc43)n2)ccc1OCCN1CCOCC1 [Compound 650]
IC50 (Kdr): < 865 nM
IC50 (AKT): > 9.73 µM
IC50 (PDGFRB): 0.865 to 5.19 µM
IC50 (EGFR): > 9.73 µM
IC50 (c-Met): 7.57 to 9.73 µM
IC50 (Tek): 7.57 to 9.73 µM
IC50 (Itk): > 9.73 µM
IC50 (Zap-70): > 9.73 µM
IC50 (Lck): 0.865 to 5.19 µM
IC50 (IGFR-1): < 865 nM

COc1cc(C)c(Nc2ncnc(Nc3cc(-c4ccccc4)n[nH]3)n2)cc1OC [Compound 978]
IC50 (Kdr): 991 to 5950 nM
IC50 (AKT): > 11.2 µM
IC50 (PDGFRB): > 11.2 µM
IC50 (EGFR): 0.991 to 5.95 µM
IC50 (c-Met): < 0.991 µM
IC50 (ErbB2): 0.991 to 5.95 µM
IC50 (Tek): > 11.2 µM
IC50 (Itk): 5.95 to 8.68 µM
IC50 (Zap-70): > 11.2 µM
IC50 (Lck): 0.991 to 5.95 µM
IC50 (IGFR-1): < 991 nM
